Target: T1, human GluR4B receptor (Homo sapiens, UniProt P48058)
T1 construct: expressed in transfected cells
Assay: potentiation of agonist-induced excitability of human GluR4B receptor expressed in HEK 293 cells
Type: cell-based
Conditions: human GluR4B expressed in HEK 293 cells
From the text: The ability of compounds of formula I to potentiate glutamate receptor-mediated response may be determined using fluorescent calcium indicator dyes (Molecular Probes, Eugene, Oreg., Fluo-3) and by measuring glutamate-evoked efflux of calcium into GluR4 transfected HEK293 cells, as described in more detail below.
In one test, 96 well plates containing confluent monolayers of HEK cells stably expressing human GluR4B (obtained as described in European Patent Application Publication Number EP-A1-583917) are prepared. The tissue culture medium in the wells is then discarded, and the wells are each washed once with 200 μl of buffer (glucose, 10 mM, sodium chloride, 138 mM, magnesium chloride, 1 mM, potassium chloride, 5 mM, calcium chloride, 5 mM, N-[2-hydroxyethyl]-piperazine-N-[2-ethanesulfonic acid], 10 mM, to pH 7.1 to 7.3). […]
Each test is then performed as follows. […] A second fluorescent reading is taken after 5 minutes incubation. 15 μl of 400 μM glutamate solution is then added to each well (final glutamate concentration 100 μM), and a third reading is taken. The activities of test compounds and cyclothiazide solutions are determined by subtracting the second from the third reading (fluorescence due to addition of glutamate in the presence or absence of test compound or cyclothiazide) and are expressed relative to enhance fluorescence produced by 100 μM, cyclothiazide.

T1 sequence (P48058 21-902): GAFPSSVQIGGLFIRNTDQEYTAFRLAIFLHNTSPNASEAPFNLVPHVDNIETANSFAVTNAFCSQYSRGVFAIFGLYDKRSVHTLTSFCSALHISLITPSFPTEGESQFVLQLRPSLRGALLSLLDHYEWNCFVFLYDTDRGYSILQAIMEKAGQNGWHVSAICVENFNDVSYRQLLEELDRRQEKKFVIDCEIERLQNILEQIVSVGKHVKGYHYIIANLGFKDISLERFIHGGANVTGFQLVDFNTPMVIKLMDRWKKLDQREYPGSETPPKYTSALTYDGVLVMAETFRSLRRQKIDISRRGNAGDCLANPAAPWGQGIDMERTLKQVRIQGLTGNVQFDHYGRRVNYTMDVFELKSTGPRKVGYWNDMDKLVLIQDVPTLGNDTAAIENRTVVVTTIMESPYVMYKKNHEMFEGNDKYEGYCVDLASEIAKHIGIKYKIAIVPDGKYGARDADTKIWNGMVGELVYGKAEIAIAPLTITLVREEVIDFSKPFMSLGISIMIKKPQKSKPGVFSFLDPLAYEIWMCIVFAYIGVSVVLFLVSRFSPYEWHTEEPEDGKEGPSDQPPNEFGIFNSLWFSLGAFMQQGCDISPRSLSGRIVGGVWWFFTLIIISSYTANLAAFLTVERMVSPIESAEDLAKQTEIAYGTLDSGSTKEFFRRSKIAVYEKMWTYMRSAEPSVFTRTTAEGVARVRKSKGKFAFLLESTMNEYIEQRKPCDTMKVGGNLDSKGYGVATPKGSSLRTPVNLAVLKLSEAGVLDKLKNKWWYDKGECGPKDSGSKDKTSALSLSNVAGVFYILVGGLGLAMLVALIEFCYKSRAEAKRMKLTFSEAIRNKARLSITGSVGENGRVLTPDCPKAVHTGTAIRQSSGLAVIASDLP

`NS(=O)(=O)c1cc2c(cc1Cl)NC(C1CC3C=CC1C3)NS2(=O)=O` (stereo not shown) [cyclothiazide] was tested, and the “potentiation of agonist-induced excitability of human GluR4B receptor” value was “potentiate agonist-induced excitability”.
